The text below walks through data of ChEMBL document CHEMBL5233206, “An overview on the synthesis of carbohydrate-based molecules with biological activity related to neurodegenerative diseases” (RSC Med Chem, 2021).

Each structure is given as a SMILES string.

Assay [1] addresses T1, Acetylcholinesterase (Electrophorus electricus, UniProt O42275).
Description: Binding affinity to electrical eel AChE assessed as inhibition constant incubated for 20 mins by absorbance based analysis
In assay [2] the target is T1, Acetylcholinesterase. Put plainly: Inhibition of electrical eel AChE by ellman's method. A general note: DTNB colorimetry detects thiols as they appear.
Assay [3] concerns the target Cholinesterase (Equus caballus, UniProt P81908).
Description: Inhibition of equine serum BuChE by ellman's method
The target in assay [4] is T2, Acetylcholinesterase (Mus musculus, UniProt P21836).
T2 sequence (P21836 whole entry): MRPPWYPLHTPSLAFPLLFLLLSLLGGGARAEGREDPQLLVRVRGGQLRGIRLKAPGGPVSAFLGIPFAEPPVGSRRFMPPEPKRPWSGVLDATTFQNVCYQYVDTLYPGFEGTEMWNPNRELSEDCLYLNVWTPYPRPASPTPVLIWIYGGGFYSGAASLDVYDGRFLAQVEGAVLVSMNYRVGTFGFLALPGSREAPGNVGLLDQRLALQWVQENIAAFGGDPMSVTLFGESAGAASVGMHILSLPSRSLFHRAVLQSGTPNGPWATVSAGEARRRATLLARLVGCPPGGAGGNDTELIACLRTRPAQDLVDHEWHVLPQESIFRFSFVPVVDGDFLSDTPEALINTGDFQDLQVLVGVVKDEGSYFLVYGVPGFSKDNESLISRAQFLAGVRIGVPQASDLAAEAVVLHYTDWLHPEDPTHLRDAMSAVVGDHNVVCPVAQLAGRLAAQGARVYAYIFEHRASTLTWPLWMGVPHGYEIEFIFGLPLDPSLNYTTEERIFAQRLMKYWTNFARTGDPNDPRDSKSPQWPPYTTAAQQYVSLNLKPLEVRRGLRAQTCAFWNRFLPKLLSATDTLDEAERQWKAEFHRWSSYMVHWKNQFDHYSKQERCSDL
Nature of the assay: Inhibition of mouse brain AChE. It is filed as tissue-based.

The target in assay [5] is Cholinesterase (Mus musculus, UniProt Q03311). Put plainly: Inhibition of mouse serum BuChE. It counts as cell-free.
Sequence of Cholinesterase (Mus musculus, UniProt Q03311) (Q03311 whole entry): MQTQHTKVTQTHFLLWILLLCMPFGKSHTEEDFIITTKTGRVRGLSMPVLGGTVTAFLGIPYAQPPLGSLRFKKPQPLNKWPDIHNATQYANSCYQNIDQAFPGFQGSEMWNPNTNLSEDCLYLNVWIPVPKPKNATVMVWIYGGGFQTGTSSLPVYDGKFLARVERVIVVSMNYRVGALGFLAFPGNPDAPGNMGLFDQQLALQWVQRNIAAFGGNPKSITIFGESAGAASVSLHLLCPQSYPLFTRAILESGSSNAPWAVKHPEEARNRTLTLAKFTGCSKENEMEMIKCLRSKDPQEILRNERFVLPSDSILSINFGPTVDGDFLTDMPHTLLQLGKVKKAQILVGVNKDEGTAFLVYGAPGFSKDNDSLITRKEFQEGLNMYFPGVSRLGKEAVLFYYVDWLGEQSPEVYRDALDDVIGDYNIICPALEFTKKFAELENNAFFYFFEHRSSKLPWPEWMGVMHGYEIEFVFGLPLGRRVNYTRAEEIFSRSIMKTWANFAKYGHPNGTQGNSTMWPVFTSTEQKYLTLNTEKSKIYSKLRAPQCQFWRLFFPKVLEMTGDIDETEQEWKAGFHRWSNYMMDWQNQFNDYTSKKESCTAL

T1 sequence (O42275 whole entry): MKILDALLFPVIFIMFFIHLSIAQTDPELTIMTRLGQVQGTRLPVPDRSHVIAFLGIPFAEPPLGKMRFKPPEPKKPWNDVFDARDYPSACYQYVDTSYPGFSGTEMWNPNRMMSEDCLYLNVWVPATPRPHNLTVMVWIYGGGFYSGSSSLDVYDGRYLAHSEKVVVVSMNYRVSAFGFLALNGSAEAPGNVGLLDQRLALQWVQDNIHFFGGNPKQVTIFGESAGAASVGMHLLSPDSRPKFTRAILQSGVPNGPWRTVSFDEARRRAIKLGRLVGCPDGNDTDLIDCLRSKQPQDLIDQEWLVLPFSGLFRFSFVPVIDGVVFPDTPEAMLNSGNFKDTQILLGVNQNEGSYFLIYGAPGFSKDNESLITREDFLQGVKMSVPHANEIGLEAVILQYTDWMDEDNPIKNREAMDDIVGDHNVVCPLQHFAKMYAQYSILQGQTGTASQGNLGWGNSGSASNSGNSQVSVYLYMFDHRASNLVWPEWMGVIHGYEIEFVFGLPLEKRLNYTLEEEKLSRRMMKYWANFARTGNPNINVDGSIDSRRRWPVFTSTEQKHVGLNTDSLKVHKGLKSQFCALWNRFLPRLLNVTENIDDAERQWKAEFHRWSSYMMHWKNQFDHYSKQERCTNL
Sequence of Cholinesterase (Equus caballus, UniProt P81908) (P81908 whole entry): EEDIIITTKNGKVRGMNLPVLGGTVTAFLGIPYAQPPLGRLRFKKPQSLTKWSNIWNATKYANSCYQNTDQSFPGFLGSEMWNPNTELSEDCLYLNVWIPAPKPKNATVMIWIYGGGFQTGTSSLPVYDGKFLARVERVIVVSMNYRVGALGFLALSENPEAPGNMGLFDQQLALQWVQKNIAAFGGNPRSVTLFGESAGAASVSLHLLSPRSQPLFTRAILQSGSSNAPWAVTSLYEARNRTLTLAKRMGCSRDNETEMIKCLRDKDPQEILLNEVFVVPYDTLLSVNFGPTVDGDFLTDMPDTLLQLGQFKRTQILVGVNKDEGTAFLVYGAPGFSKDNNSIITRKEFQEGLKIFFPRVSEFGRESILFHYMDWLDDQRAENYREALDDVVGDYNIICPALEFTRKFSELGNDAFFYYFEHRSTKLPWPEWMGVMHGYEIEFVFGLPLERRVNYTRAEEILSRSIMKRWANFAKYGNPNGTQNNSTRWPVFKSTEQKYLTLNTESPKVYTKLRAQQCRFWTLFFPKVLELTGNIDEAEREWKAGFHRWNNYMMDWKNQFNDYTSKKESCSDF

The compound `CCCCCCCCCCCCNC(=O)[C@@H](OCc1ccccc1)[C@H]1O[C@@H](n2cc(-c3ccccc3)nn2)[C@H](OC(C)=O)[C@H]1OCc1ccccc1` showed an inhibitory constant (Ki) on Acetylcholinesterase [1] of 3530 nM.
With `CC(=O)O[C@H]1C(NS(C)(=O)=O)O[C@H](Cn2c(=O)c3c(ncn3C)n(C)c2=O)[C@@H]1OCc1ccccc1` (some centres undefined), the Ki at Acetylcholinesterase [1] was 6610 nM.
With `COc1ccc2c(c1)c(=O)c1ccccc1n2CCCCCCn1cc(CO[C@H]2C[C@H](O)[C@@H](CO)O2)nn1`, the results for the half-inhibitory concentration (IC50) against Acetylcholinesterase [2] and against Cholinesterase [3] were 85100 nM and 35400 nM, respectively.
Consider `CC1(C)O[C@H]2O[C@H](NCCCCCCCNc3c4c(nc5ccccc35)CCCC4)[C@H](O)[C@H]2O1`, for which the IC50 came out at 8.7 nM on Acetylcholinesterase [4] and 27 nM against Cholinesterase [5].
In turn, `CCCCCCCCCCCCNC(=O)[C@@H](OCc1ccccc1)[C@H]1OC(OC(C)=O)[C@H](OC(C)=O)[C@H]1OCc1ccccc1` (some centres undefined) showed an inhibition constant (Ki) at Acetylcholinesterase [1] above 100000 nM.
On the same count and under the same terms, to `CCCCCCCCCCCCNC(=O)[C@@H](OCc1ccccc1)[C@H]1OC(n2cc(-c3ccccc3)nn2)[C@H](OC(C)=O)[C@H]1OC(C)=O` (some centres undefined) belongs 9500 nM.
`CC1(C)O[C@H]2O[C@H](CNCCCCCCCCCCCNc3c4c(nc5ccccc35)CCCC4)[C@H](O)[C@H]2O1`: the results for the half-maximal inhibitory concentration (IC50) against Acetylcholinesterase [4] and against Cholinesterase [5] were 2.2 nM and 4.9 nM, respectively.
For `O=c1c2ccccc2n(CCCCCCn2cc(CO[C@H]3C[C@H](O)[C@@H](CO)O3)nn2)c2ccccc12`, the IC50 on Acetylcholinesterase [2] was found to be 167000 nM; against Cholinesterase [3], 42800 nM.
Compound `CCCCCCCCCCCCNC(=O)[C@@H](OCc1ccccc1)[C@H]1OC(N=[N+]=[N-])[C@H](OC(C)=O)[C@H]1OC(C)=O` (some centres undefined) gave an inhibitory constant (Ki) on Acetylcholinesterase [1] above 100000 nM.
In turn, `CCCCCCCCCCCCNC(=O)[C@@H](OCc1ccccc1)[C@H]1O[C@@H](N=[N+]=[N-])[C@H](OC(C)=O)[C@H]1OCc1ccccc1` gave an inhibition constant (Ki) on Acetylcholinesterase [1] of 1730 nM.
Consider `CC1(C)O[C@H]2O[C@H](CNCCCCCCCCNc3c4c(nc5ccccc35)CCCC4)[C@H](O)[C@H]2O1`, for which the half-maximal inhibitory concentration (IC50) stood at 84 nM against Acetylcholinesterase [4] and 11 nM on Cholinesterase [5].
As to `CC1(C)O[C@H]2[C@@H](O1)[C@@H](CNCCCCCCCCCNc1c3c(nc4ccccc14)CCCC3)O[C@@H]1OC(C)(C)O[C@@H]12`, the results for the concentration for half-maximal inhibition (IC50) against Acetylcholinesterase [4] and against Cholinesterase [5] were 4.8 nM and 37 nM, respectively.
For the compound `Cn1cnc2c1c(=O)n(C[C@H]1O[C@@H]3OC(C)(C)O[C@@H]3[C@H]1OCc1ccccc1)c(=O)n2C`, the inhibitory constant (Ki) at Acetylcholinesterase [1] is above 100000 nM.
For the compound `CC1(C)O[C@H]2O[C@H](CNCCCCCCCCCNc3c4c(nc5ccccc35)CCCC4)[C@H](O)[C@H]2O1`, the IC50 is 5.1 nM at Acetylcholinesterase [4] and 25 nM against Cholinesterase [5].
For the compound `CC1(C)O[C@H]2O[C@H](CNCCCCCCCCCCNc3c4c(nc5ccccc35)CCCC4)[C@H](O)[C@H]2O1`, the concentration for half-maximal inhibition (IC50) is 10 nM at Acetylcholinesterase [4] and 31 nM against Cholinesterase [5].
On to `CC1(C)O[C@H]2[C@@H](O1)[C@@H](CNCCCCCCCCCCNc1c3c(nc4ccccc14)CCCC3)O[C@@H]1OC(C)(C)O[C@@H]12`, for which the IC50 was 7.6 nM at Acetylcholinesterase [4] and 26 nM on Cholinesterase [5].
Compound `CCCCCCCCCCCCNC(=O)[C@@H](OCc1ccccc1)[C@H]1O[C@H](N=[N+]=[N-])[C@H](OC(C)=O)[C@H]1OCc1ccccc1` gave a Ki at Acetylcholinesterase [1] above 100000 nM.
For the compound `O=c1c2ccccc2n(CCCCCCn2cc(CO[C@@H]3O[C@H](CO)[C@H](O)[C@H](O)[C@H]3O)nn2)c2ccccc12`, the values for the 50% inhibitory concentration (IC50) against Acetylcholinesterase [2] and against Cholinesterase [3] were 44700 nM and 38300 nM, respectively.
`CCCCCCCCCCCCNC(=O)[C@@H](OCc1ccccc1)[C@H]1OC(OC(C)=O)[C@H](OC(C)=O)[C@H]1OC(C)=O` (some centres undefined) displayed a Ki on Acetylcholinesterase [1] above 100000 nM.
For the compound `CO[C@@H]1O[C@H](CNCCCCCCCCCNc2c3c(nc4ccccc24)CCCC3)[C@H]2OC(C)(C)O[C@@H]12`, the 50% inhibitory concentration (IC50) amounted to 90 nM at Acetylcholinesterase [4] and 37 nM at Cholinesterase [5].
As to `CCCCCCCCCCCCNC(=O)[C@@H](OCc1ccccc1)[C@H]1O[C@H](n2cc(-c3ccccc3)nn2)[C@H](OC(C)=O)[C@H]1OCc1ccccc1`, at Acetylcholinesterase [1], the Ki came to 9690 nM.
Take `CO[C@@H]1O[C@H](CNCCCCCCCCCCNc2c3c(nc4ccccc24)CCCC3)[C@H]2OC(C)(C)O[C@@H]12`: the IC50 came to 65 nM on Acetylcholinesterase [4] and 64 nM on Cholinesterase [5].

The Ki is a measure of affinity in units of concentration, obtained from inhibition or displacement. Low values mean a stronger hold on the target, high ones a looser hold on the target. The term IC50 denotes the concentration needed to halve the response being measured. Higher therefore signals a need for much substance.
